The record followed here is US7105158B1, “Methods of administering microencapsulated materials for immune modulated diseases” (priority 1992, dated 2006).

Assay [1] has as its system B-16 cells (malignant melanoma). Nature of the assay: Malignant melanoma in mice: survival. The format is in vivo. Here is the method:
In vivo studies were carried out to assess the effect of the above combination therapy, both in the solution form and in the microencapsulated form in the treatment of cancer, in order to examine any possible advantages of the microencapsulated form of the drugs. The cytokine levels (eg. TNFa and IL1β were also evaluated after treatment.
Male C57BL/6 mice weighing approximately 18-20 g were anesthetized with light ether vapor and were injected subcutaneously with B-16 cells (1×10^6 cells). Their weights, tumor size and survival rate (in days) were measured daily. The tumor size was followed by measuring the long axis of the tumor daily. The study began once the tumor size reached 0.5 cm in diameter. The animals were divided into control and treatment groups. The control groups received phosphate buffered saline, blank PLGA microspheres or blank albumin microspheres. The treated groups received the following dosing schedule: Methotrexate solution (2 mg/kg or 15 mg/kg) administered s.c. daily or every three days. The M-CSF solution (10 microgram/kg or 100 microgram/kg) administered i.p. daily. The MTX microspheres (2 mg/kg or 15 mg/kg) and/or the M-CSF microspheres (10 microgram/kg or 100 microgram/kg) administered s.c. and i.p. respectively, alone or in combination therapy.

In assay [2] the test system is OKT3 induced TNFa release. Nature of the assay: Inhibition of OKT3 induced cytokine release in blood: TNFa. The format is cell-based. Particulars: human blood, OKT3 1 μg/mL, 37° C., 24 hr; Grp 2 OKT3+Blank MC, Grp 3 TNFa NA 1 μg/mL+IL1β NA 2 μg/mL+OKT3. From the text:
(§1) OKT3 is a murine monoclonal antibody to the CD3 antigen of human T cells and is used to treat transplant rejection. The high incidence of adverse reactions associated with OKT3 is thought to be related to the induction of cytokines. The purpose of this study was to determine if microencapsulated (MC) neutralizing antibodies (NA) to human TNFa and IL1β which are readily phagocytized by macrophages can inhibit the release of TNFa, IL1β, and IL6 following OKT3 challenge in vitro.
(§2) Microcapsules were prepared using the method from Example 1 using an albumin matrix. Blood was collected from 10 healthy subjects and separated into aliquots for the following groups. • Grp 1) Blank MC • Grp 2) OKT3 1 μg/mL+Blank MC • Grp 3) TNFa NA 1 μg/mL+IL1β NA 2 μg/mL+OKT3 1 μg/mL. Aliquots were incubated at 37° C. for 24 hr. Blood was assayed for TNFa, […], and IL6 at 0, 2, 6, 24 hr by ELISA. C) Results

The test system of another assay is OKT3 induced IL6 release. The assay is described as follows: Inhibition of OKT3 induced cytokine release in blood: IL6. Type of assay: cell-based. Particulars: human blood, OKT3 1 μg/mL, 37° C., 24 hr.
Excerpt: as §1, §2

As for `CN(Cc1cnc2nc(N)nc(N)c2n1)c1ccc(C(=O)N[C@@H](CCC(=O)O)C(=O)O)cc1` [MTX solution, methotrexate], in assay [1] (2 mg/kg s.c. every 3 days), the mean survival was determined as 12.8 days. In addition, the mean survival time in assay [1] (15 mg/kg s.c. every 3 days) was found to be 14.2 days. Take “OKT3: murine monoclonal antibody to the CD3 antigen of human T cells”: the “Peak TNFa” value in assay [2] was 655 ± 71 pg/mL. Also, the “Peak IL6” value in the assay on OKT3 induced IL6 release was 664 ± 60 pg/mL.

B1: M-CSF solution: Macrophage colony stimulating factor in solution (protein, UniProt P09603 33-554, looked up)
Macrophage colony-stimulating …: EEVSEYCSHMIGSGHLQSLQRLIDSQMETSCQITFEFVDQEQLKDPVCYLKKAFLLVQDIMEDTMRFRDNTPNAIAIVQLQELSLRLKSCFTKDYEEHDKACVRTFYETPLQLLEKVKNVFNETKNLLDKDWNIFSKNCNNSFAECSSQDVVTKPDCNCLYPKAIPSSDPASVSPHQPLAPSMAPVAGLTWEDSEGTEGSSLLPGEQPLHTVDPGSAKQRPPRSTCQSFEPPETPVVKDSTIGGSPQPRPSVGAFNPGMEDILDSAMGTNWVPEEASGEASEIPVPQGTELSPSRPGGGSMQTEPARPSNFLSASSPLPASAKGQQPADVTGTALPRVGPVRPTGQDWNHTPQKTDHPSALLRDPPEPGSPRISSLRPQGLSNPSTLSAQPQLSRSHSSGSVLPLGELEGRRSTRDRRSPAEPEGGPASEGAARPLPRFNSVPLTDTGHERQSEGSFSPQLQESVFHLLVPSVILVLLAVGGLLFYRWRRRSHQEPQRADSPLEQPEGSPLTQDDRQVELPV
B1: the mean survival time in assay [1] (10 microgram/kg i.p. daily) is reported as 14,2 days.
